Source: article PMC11054303, “Design and Synthesis of Novel N-Benzylidene Derivatives of 3-Amino-4-imino-3,5-dihydro-4H-chromeno[2,3-d]pyrimidine under Microwave, In Silico ADME Predictions, In Vitro Antitumoral Activities and In Vivo Toxicity” (Pharmaceuticals, 2024)
Entries after “also recorded” stand apart in the source; their conditions may differ.

Key:
[1] = Antiproliferative assay, Caco2; format: cell-based, human; conditions: human, Caco-2; SI = IC50 fibroblasts/IC50 on Caco2; read-out: Selectivity Index (SI) Caco2
Method: (§1) The potential antiproliferative activity of these novel 3-(N-phenylmethyliden)amino-4-imino-3,5-dihydro-4H-chromeno[2,3-d]pyrimidine 10(a-i) and 10-(N-phenylmethyliden)amino-11-imino-11H-naphto[1′,2′:5,6]pyrano[2,3-d]pyrimidine 10(j-l) was evaluated in a panel of eight tumoral cell lines and in diploid skin fibroblasts used as normal cell lines for control. For these antitumor assays, chosen cell lines represent diverse types of human cancer, which are, respectively, human hepatocellular carcinoma (Huh7 D12), human colon adenocarcinoma (Caco2), human breast adenocarcinoma (MDA-MB231), MDA-MB468 for human breast carcinoma which correspond to the Triple Negative Breast Cancer (TNBC), human colon carcinoma (HCT116), PC3 as cell line initiated from bone metastasis of grade IV prostatic adenocarcinoma from a person, MCF7 as breast cancer line isolated from a person and PANC1, as human pancreatic cancer cell line. The potential antiproliferative activity was preliminarily evaluated in vitro at a 25 μM single dose.
(§2) The IC50 was calculated from the full dose-response curve and used as a parameter for the antiproliferative activity of the new compounds.
(§3) Skin diploid fibroblastic cells were provided by BIOPREDIC International Company (Rennes, France). Huh-7D12 (Ref ECACC: 01042712), Caco2 (Ref ECACC: 86010202), MDA-MB-231 (Ref ECACC: 92020424), MDA-MB-468, HCT-116 (Ref ECACC: 91091005), PC3 (Ref ECACC: 90112714), and MCF7 cell lines were obtained from the ECACC collection. PANC1 cell lines, a generous gift of LBAI Inserm 1227 (Brest, France). Cells were grown according to ECACC recommendations in DMEM for Huh-D12, MDA-MB-231, MDA-MB-468 and fibroblast, in EMEM for Caco2, in McCoy’s for HCT-116 and RPMI for PC3 at 37 °C and 5% CO2. All culture media with 10% of FBS, 1% of penicillin-streptomycin and 2 mM glutamine.
(§4) Chemicals were solubilized in DMSO at a concentration of 10 mM (stock solution) and diluted in a culture medium to the desired final concentrations. […] The toxicity test of the chemicals on these cells was as follows: 2 × 10^3 cells for HCT-116 cells or 4 × 10^3 for the other cells were seeded in 96-multi-well plates in triplicate and left for 24 h for attachment, spreading and growing. Then, cells were exposed for 48 h to increasing concentrations of chemicals, ranging from 0.1 μM to 25 μM, in a final volume of 120 μL of culture medium. After 48 h of treatment, cells were washed in PBS and fixed in a cooled 90% ethanol/5% acetic acid solution for 20 min. The nuclei were stained with Hoechst 3342 (B2261 Merck Sigma-Aldrich) and counted. Image acquisition and analysis were performed using automated imaging analysis with a Cellomics Arrayscan VTI/HCS Reader (Thermo/Scientific, Waltham, MA, USA). The survival percentages were calculated as the percentage of cell number after chemical treatment over cell number after DMSO treatment. The IC50 was graphically determined.

Caco2 = assay: Antiproliferative assay, Caco2; format: cell-based, human; conditions: Homo sapiens, Caco-2; 48 h incubation; average of three assays, standard error ± 0.5 μM
Method: as §1, §2, §3, §4

HCT 116 = assay: Antiproliferative assay, HCT 116; format: cell-based, human
Method: as §1, §2, §3, §4

MCF7 = assay: Antiproliferative assay, MCF7; format: cell-based, human
Method: as §1, §2, §3, §4

[2] = tested on: zebrafish Danio rerio embryos; assay: Angiogenesis of vessels in mCherry transgenic zebrafish embryos; format: in vivo
From the text: Another interest of zebrafish Danio rerio is the possibility to deeply evaluate the effects of angiogenic compounds. In our model, the formation of most vessels is complete, the circulation is present, and the heart is beating after 28 hpf of development. Angiogenesis begins in the somites and in the anterior portion of the embryos. Many zebrafish blood vessels form by angiogenic sprouting and appear to require the same proteins required for blood vessel growth in mammals. By using the mCherry line transgenic zebrafish, it is possible to analyze the direct effect of a compound on the angiogenesis of dorsal vessels. Zebrafish embryos can survive up to a week without an intact circulatory system because defective vessel formation has no immediate lethal effect.
These experiments were performed in four technical replicates.

COc1cccc2c1Oc1ncn(/N=C/c3ccccc3O)c(=N)c1C2 [10h, (3E) 3-N-(2-Hydroxyphenylmethylidene)amino-4-imino-9-methoxy-3,5-dihydro-4H-chromeno[2,3-d]pyrimidine]
selectivity ratio at 48 h [1]: > 83.3
IC50 (Caco2): 300 nM
IC50 (HCT 116; Homo sapiens, HCT-116, 48 h incubation, average of three assays, standard error ± 0.5 μM): 240 nM
Selectivity Index (SI) HCT 116 (HCT 116; SI = IC50 fibroblasts/IC50 on HCT 116): > 104.2
IC50 (MCF7; Homo sapiens, MCF7, 48 h incubation, average of three assays, standard error ± 0.5 μM): 270 nM
Selectivity Index (SI) MCF7 (MCF7; SI = IC50 fibroblasts/IC50 on MCF7): > 92.6
effect on vessel angiogenesis ([2]; 5 μM dose at 72 hpf): no angiogenic effect; also recorded: cannot observe an anti-angiogenic effect; also recorded: without delay in vessel angiogenesis
effect on vessel angiogenesis ([2]; 48 and 72 hpf treatment, up to 5 μM): without delay in vessel angiogenesis
